Measurements from PubChem BioAssay AID1996.
In brackets after ≈: the same amount, converted by molar mass.

Conditions: buffer; pH 7.4; 200.0 µM
For Cc1ccc(Cl)cc1NC(=O)N[C@@H](CC(C)C)C(=O)O, the solubility kinetic was 43.8 µg/mL (≈ 147 µM).
In the case of Cc1c(N)cc[n+](CC(=O)c2ccccc2)c1C.[Br-], the solubility kinetic is reported as > 48.2 µg/mL.
With Cc1ccc(OCC(O)CNC2CCCC2)cc1C.Cl (stereo not given) the solubility kinetic was > 45 µg/mL.
With CCN(Cc1cccc(F)c1)C(=O)c1ccc2ccccc2n1 the solubility kinetic was > 46.3 µg/mL.
In the case of O=C(CSc1ncccn1)NCCC1=CCCCC1, the solubility kinetic is reported as > 41.6 µg/mL.
OC1CCN(Cc2cccc3ccccc23)CC1 gave a solubility kinetic of 29.3 µg/mL (≈ 121 µM).
With CC(Oc1ccc(Cl)cc1Cl)C(=O)Nc1ccc(OCC(=O)O)cc1 (stereo not given) the solubility kinetic was > 57.6 µg/mL.
In the case of CC(C)Oc1cccc(C2NC(=O)c3ccccc3O2)c1 (stereo not given), the solubility kinetic is reported as 6.7 µg/mL (≈ 23.6 µM).
With COc1ccc(C(C)NC(=O)Nc2ccc(C(C)=O)cc2)cc1OC (stereo not given) the solubility kinetic was 47 µg/mL (≈ 137 µM).
In the case of CCCn1cnc2cc(NC(=O)c3ccco3)ccc21, the solubility kinetic is reported as > 40.4 µg/mL.
Cc1sc2nc[nH]c(=O)c2c1-c1ccc(Cl)cc1 showed a solubility kinetic of 1.8 µg/mL (≈ 6.5 µM).
In the case of CCC1CCC2(CC1)SCC(=O)N2c1ccccc1 (stereo not given), the solubility kinetic is reported as 5.7 µg/mL (≈ 20.7 µM).
In the case of Cc1ccsc1C(=O)C1CCCN(Cc2ccc(O)cc2)C1 (stereo not given), the solubility kinetic is reported as 36.8 µg/mL (≈ 117 µM).
For COc1ccc(CC(=O)OCN2C(=O)c3ccccc3C2=O)cc1OC, the solubility kinetic was > 53.3 µg/mL.
In the case of CN1CCCN=C1COC(=O)C(O)(c1ccccc1)C1CCCCC1.Cl (stereo not given), the solubility kinetic is reported as > 57.1 µg/mL.
In the case of CN(C)S(=O)(=O)c1cccc(C(=O)NCC2CCCCC2)c1, the solubility kinetic is reported as 2.8 µg/mL (≈ 8.63 µM).
In the case of CC(=O)c1ccc[n+](CC(=O)NC(C)c2ccccc2)c1.[Cl-] (stereo not given), the solubility kinetic is reported as > 47.8 µg/mL.
Compound CCOc1ccc(NC(=O)Nc2ccc3c(c2)nc(C)n3C)cc1 has a solubility kinetic of 2.5 µg/mL (≈ 7.71 µM).
In the case of CC(OC(=O)c1cc(S(=O)(=O)N2CCOCC2)ccc1F)C(=O)NCC1CCCCC1 (stereo not given), the solubility kinetic is reported as > 68.5 µg/mL.
Work on COc1ccc(N2CCN(S(=O)(=O)c3cn(C)c(=O)n(C)c3=O)CC2)cc1 yielded a solubility kinetic of 17.9 µg/mL (≈ 45.4 µM).
In the case of Cc1cc(C)cc(NC(=O)Nc2ccc3ccccc3n2)c1, the solubility kinetic is reported as < 0.2 µg/mL.
For OCCNCC(O)CN1c2ccccc2Sc2ccccc21 (stereo not given), the solubility kinetic was > 47.5 µg/mL.
For O=C(NC1CC(=O)N(c2ccccc2)C1)C1CC1 (stereo not given), the solubility kinetic was > 36.6 µg/mL.
In the case of O=C(Nc1sc2c(c1C(=O)O)CCC2)C(=O)N1CCOCC1, the solubility kinetic is reported as > 48.7 µg/mL.
For Cc1ccc(C)c(C(C)NC(=S)NC2CCCCC2)c1 (stereo not given), the solubility kinetic was 10.7 µg/mL (≈ 36.8 µM).
For Cn1cccc1C(=O)N1CCc2ccccc2C1, the solubility kinetic was > 36 µg/mL.
For CCN(CC(=O)NCc1ccc(Cl)cc1)C(=O)c1cc(S(=O)(=O)N2CCOCC2)ccc1C, the solubility kinetic was > 74.1 µg/mL.
With COCCNC(=O)NC(=O)CSc1nc(C)c(C)c(C)n1 the solubility kinetic was > 46.9 µg/mL.
Cc1cccc(NC(=O)c2ccc(N3C(=O)C4CCCCC4C3=O)cc2)c1C (stereo not given) showed a solubility kinetic of 20.6 µg/mL (≈ 54.7 µM).
Work on COc1ccc(CNC(=O)C(=O)NCc2cccnc2)cc1 yielded a solubility kinetic of 20.9 µg/mL (≈ 69.8 µM).
Cc1nc(N2CCCCC2)c(C#N)c(C)c1[N+](=O)[O-] showed a solubility kinetic of 3.8 µg/mL (≈ 14.6 µM).
Oc1ccc2ccccc2c1C=NC12CN3CCN(CN(C3)C1)C2 gave a solubility kinetic of 46.5 µg/mL (≈ 144 µM).
With COc1ccc(S(=O)(=O)N2CCOCC2)cc1NC(=O)CN(C)CC(=O)Nc1cccc(F)c1 the solubility kinetic was > 74.2 µg/mL.
Work on CC(C)CNC(=O)[C@H](Cc1ccccc1)NC(=O)c1cccs1 yielded a solubility kinetic of 9.6 µg/mL (≈ 29.1 µM).
With Cc1ccc2[nH]c(C(=O)O)c(NC(=O)[C@@H]3C[C@@H]3c3ccccc3)c2c1 the solubility kinetic was > 50.2 µg/mL.
C=CCOC(=O)/C(=C/c1cccnc1)NC(=O)c1ccccc1 showed a solubility kinetic of 43.4 µg/mL (≈ 141 µM).
For Cc1cccc(C(=O)OCC(=O)N2CCCCCC2)c1O, the solubility kinetic was 36 µg/mL (≈ 124 µM).
In the case of CCN(CC)S(=O)(=O)c1cc(NC(=O)CSCc2c(C)noc2C)ccc1C, the solubility kinetic is reported as > 63.8 µg/mL.
In the case of Cn1cc(C(=O)OCC(=O)N2CCCCC2)c2ccccc21, the solubility kinetic is reported as > 45.1 µg/mL.
For O=c1[nH]c(SCc2c(Cl)cccc2Cl)nc2ccccc12, the solubility kinetic was < 0.4 µg/mL.
CC(NC(=S)NC(=O)c1ccccc1)c1ccccc1 (stereo not given) gave a solubility kinetic of 6.4 µg/mL (≈ 22.5 µM).
For O=C(CC1CCCC1)N1CCN(S(=O)(=O)c2ccccc2)CC1, the solubility kinetic was > 50.5 µg/mL.
For Cc1ccc(S(=O)(=O)N(C)C)cc1NC(=O)CCc1ccccc1, the solubility kinetic was 49.9 µg/mL (≈ 144 µM).
In the case of NC(=O)C1CCN(C(=O)CCSCc2ccccc2)CC1, the solubility kinetic is reported as > 46 µg/mL.
Compound O=C(Nc1ccc(F)c(Cl)c1)C1CC(=O)n2c(nc3ccccc32)N1 (stereo not given) has a solubility kinetic of 0.4 µg/mL (≈ 1.11 µM).
Compound O=C(Nc1cccc([N+](=O)[O-])c1)C1C2CCCCC21 (stereo not given) has a solubility kinetic of 0.5 µg/mL (≈ 1.92 µM).
With CCN(Cc1nc(-c2ccc(C)cc2)no1)C(=O)c1ccco1 the solubility kinetic was 38.9 µg/mL (≈ 125 µM).
With CCCc1cnc(N2CCN(C(=O)c3ccccc3)CC2)nc1 the solubility kinetic was > 46.6 µg/mL.
With CC(C)OC(=O)/C(=C\c1cccnc1)NC(=O)c1ccccc1 the solubility kinetic was > 46.6 µg/mL.
With CC(=O)CC(C)(C)NC(C)=S the solubility kinetic was > 26 µg/mL.
In the case of CN1CCC(N(C)C(=O)COc2ccccc2Cl)CC1, the solubility kinetic is reported as > 44.5 µg/mL.
For O=C1NC2(CCCC2)C(=O)N1Cc1cc(=O)n2ccsc2n1, the solubility kinetic was > 47.8 µg/mL.
In the case of CC(=O)c1sc(-c2ccc(Cl)cc2)nc1C, the solubility kinetic is reported as < 0.5 µg/mL.
O=C(Nc1cc([N+](=O)[O-])ccc1O)c1cccc([N+](=O)[O-])c1 gave a solubility kinetic of 37.1 µg/mL (≈ 122 µM).
With CN(CC(=O)NCc1cccnc1)S(=O)(=O)c1ccc(F)cc1 the solubility kinetic was > 50.6 µg/mL.
With Cc1ccc(NC(=O)CN(C)C(=O)Cc2ccccc2F)cc1 the solubility kinetic was > 47.2 µg/mL.
O=S(=O)(c1ccccc1)N1CCNCC1 gave a solubility kinetic of 26.6 µg/mL (≈ 118 µM).
For CC(C)(C)c1ccc(S(=O)(=O)N2CCN(CC(O)CN3CCOCC3)CC2)cc1 (stereo not given), the solubility kinetic was > 63.8 µg/mL.
For Cc1ccccc1NC(=O)C1C2CCCCC21 (stereo not given), the solubility kinetic was 3.4 µg/mL (≈ 14.8 µM).
Cn1c(/C(C#N)=C(\O)c2cc(Cl)sc2Cl)nc2ccccc21 showed a solubility kinetic of 0.9 µg/mL (≈ 2.57 µM).
COC(=O)CSc1nc(N2CCOCC2)c2c(c1C#N)CCCC2 gave a solubility kinetic of 25.6 µg/mL (≈ 73.7 µM).
With O=C(NC1CCS(=O)(=O)C1)c1cccs1 (stereo not given) the solubility kinetic was > 36.8 µg/mL.
In the case of CS(=O)(=O)N1CCC(C(=O)Nc2ccc(C(N)=O)cc2)CC1, the solubility kinetic is reported as 34.7 µg/mL (≈ 107 µM).
With Cc1ccc2c(c1)N(CC(=O)N1CCOCC1)C(=O)CO2 the solubility kinetic was > 43.5 µg/mL.
In the case of Cc1ccc2oc(C(=O)NCC(c3ccco3)N(C)C)c(C)c2c1 (stereo not given), the solubility kinetic is reported as > 49 µg/mL.
With Cc1ccc2nc(N3CCOCC3)c(C=O)c(=O)n2c1 the solubility kinetic was > 41 µg/mL.
For O=C(CS(=O)(=O)c1ccc2ccccc2c1)N1CCCCCC1, the solubility kinetic was 47.1 µg/mL (≈ 142 µM).
With Cc1ccc(S(=O)(=O)N2CCOCC2)cc1NC(=O)COC(=O)C1(C)CC1(Cl)Cl (stereo not given) the solubility kinetic was > 69.8 µg/mL.
In the case of CCCNC(=O)Cc1c(C)oc2ccccc12, the solubility kinetic is reported as > 34.7 µg/mL.
Compound COc1ccc(-c2cc(=O)oc(-c3cccc(C)c3)n2)cc1 has a solubility kinetic of 1.1 µg/mL (≈ 3.75 µM).
In the case of CCOc1ccc(C(=S)N2CCCC2)c(OCC)c1, the solubility kinetic is reported as > 41.9 µg/mL.
Compound N#CC1=C(N)Oc2c(ccc3cccnc23)C1c1ccccc1 (stereo not given) has a solubility kinetic of 9.8 µg/mL (≈ 32.7 µM).
In the case of Cc1cc(C)c(N=C2C(=O)Nc3ccccc32)c(C)c1, the solubility kinetic is reported as > 39.6 µg/mL.
CC1C(=O)Nc2ccccc2N1C(=O)c1ccc(Cl)c(Cl)c1 (stereo not given) showed a solubility kinetic of 36.2 µg/mL (≈ 108 µM).
Compound CCOC(=O)c1c(C)[nH]c(C(=O)OCc2ccc(C)cc2)c1C has a solubility kinetic of 3.2 µg/mL (≈ 10.1 µM).
For C=CCN1CCN(C(=O)c2oc3ccccc3c2C)CC1, the solubility kinetic was > 42.7 µg/mL.
C=CCn1cc(C=C2C(=O)NC(=O)NC2=O)c2ccccc21 showed a solubility kinetic of 3.6 µg/mL (≈ 12.2 µM).
Compound CCOc1nc(Nc2ccc(OC)cc2)nc(N2CCOCC2)n1 has a solubility kinetic of 4.8 µg/mL (≈ 14.5 µM).
CCOC(=O)CN1C(=O)S/C(=C/c2ccco2)C1=O showed a solubility kinetic of 21.2 µg/mL (≈ 75.4 µM).
For COc1ccc(-n2ccnc2SCC(=O)NO)cc1, the solubility kinetic was > 41.9 µg/mL.
In the case of CCOc1ccc(CNCc2ccccc2Cl)cc1.Cl, the solubility kinetic is reported as 31.6 µg/mL.
With COc1ccc(CCNC(=O)COC(=O)C2CC2C)cc1 (stereo not given) the solubility kinetic was > 43.7 µg/mL.
Compound COc1ccc(NS(=O)(=O)c2ccc3c(c2)CCO3)cc1 has a solubility kinetic of 45 µg/mL (≈ 147 µM).
For CC1(NC(=O)C2CCCCC2)CCS(=O)(=O)C1 (stereo not given), the solubility kinetic was 35.1 µg/mL (≈ 135 µM).
With CC(=O)N1CCN(Cc2nc3cc(Cl)ccc3c(=O)[nH]2)CC1 the solubility kinetic was > 48.1 µg/mL.
